Results published in patent publication US6548499B1, “Substituted quinoxaline derivatives as interleukin-8 receptor antagonists” (Millennium Pharmaceuticals, Inc., priority 1998, dated 2003).

How the values were obtained:
[1] = test system: human neutrophils; assay: IL-8 chemotaxis assay; format: cell-based; settings: freshly isolated human neutrophils, rhIL-8 as chemoattractant, 30 minutes at 37° C.
Experimental: Compounds of Formula I and II were evaluated for their effect on chemotaxis using methodology known in the art, e.g., Carr M. W., Roth S. J., Luther E., Rose S. S., and Springer T. A., “Monocyte chemoattractant protein 1 acts as a T-lymphocyte chemoattractant.” Proc. Natl. Acad Sci. USA, 1994;91:3652; Qin S., Larosa G., Campbell J. J. et al., “Expression of MCP-1 and IL-8 receptors on subset on T-cells, and correlation with transendothelial chemotactic potential,” Eur. J. Immu., 1996;26:640.
Briefly, freshly isolated human neutrophils were resuspended in chemotaxis buffer, which is made of one part of RPMI 1640 medium, one part of Medium 199, and 0.5% BSA. The cells were incubated with or without compounds for 5 minutes. Similarly, rhIL-8 was incubated in a separate plate, then transferred into lower chambers of chemotaxis plate. Neutrophils were added onto the top chamber. The plates were incubated at 37° C. for 30 minutes. The top chamber was then removed and the plate frozen at −80° C. for 30 minutes. After thawing, migrated cells were stained with Cytoquant Cell Proliferation Assay Kit (Molecular Probes No. C-7026) and quantitated by reading the plate on a fluorescent plate reader.

[2] = test system: human neutrophils; assay: IL-8 calcium flux assay; format: cell-based; settings: @ 11 μM; human neutrophils stimulated with human IL-8
Experimental: Compounds of Formula I and II were evaluated for their effect on calcium flux using methodology known in the art, e.g., Neote K., DiGregorio D., Mak J. Y., Horuk R., and Schall T. J., “Molecular cloning, functional expression, and signaling characteristics of a C—C chemokine receptor,” Cell, 1993;72:415.
Briefly, human neutrophils were incubated with the fluorescence dye FLUO-3 for 1 hour. The cells were washed after this loading period, resuspended in HANKs buffer, and loaded into a 96-well plate. Compound was added to each well. After a 2-minute incubation period, the cells were stimulated with human IL-8 and the calcium flux response recorded and quantified.

| melting point | Compound | other results |
| --- | --- | --- |
| 275 to 277 °C (dec.) | Cl.Clc1cc2nc(-c3ccccn3)c(N3CCC(N4CCCCC4)CC3)nc2cc1Cl |  |
| 220 °C | CCN(CC)CCCCNc1nc2cc(Cl)c(Cl)cc2nc1-c1cc2ccccc2o1.Cl |  |
| 186 to 188 °C | CN1CCCC1CCNc1nc2ccccc2nc1-c1ccccn1 (stereo not drawn) [Example 4, N-[2-(1-Methyl-2-pyrrolidinyl)ethyl]-3-(2-pyridinyl)-2-quinoxalinamine] |  |
| 205 to 206 °C | c1ccc(-c2nc3ccccc3nc2Nc2ccc(N3CCOCC3)cc2)nc1 [Example 6, N-[4-(4-Morpholinyl)phenyl]-3-(2-pyridinyl)-2-quinoxalinamine] |  |
| 175 to 177 °C | CN(C)CCCCNc1nc2cc(F)c(F)cc2nc1-c1cccs1 [Example 17, N′-(6,7-Difluoro-3-thiophen-2-yl-quinoxalin-2-yl)-N,N-dimethyl-butane-1,4-diamine] |  |
| 142 to 144 °C | c1ccc(-c2nc3ccccc3nc2NCc2ccncc2)nc1 [Example 7, N-(4-Pyridinylmethyl)-3-(2-pyridinyl)-2-quinoxalinamine] |  |
| 250 to 252 °C (dec.) | CCN(CC)Cc1ccc(Nc2nc3cc(Cl)c(Cl)cc3nc2-c2ccccn2)cc1 [Example 13, (6,7-Dichloro-3-pyridin-2-yl-quinoxalin-2-yl)-(4-diethylaminomethyl-phenyl)-amine] |  |
|  | CN(C)CCCNc1nc2cc(Cl)c(Cl)cc2nc1-c1ccco1 [Example 14, N′-(6,7-Dichloro-3-furan-2-yl-quinoxalin-2-yl)-N,N-dimethyl-propane-1,3-diamine] | IC50 ([1]; Neutrophil, 0.5 h): 1.8 µM |
| 85 to 86 °C | c1ccc(-c2nc3ccccc3nc2NCCCn2ccnc2)nc1 [Example 3, N-[3-(1H-Imidazol-1-yl)propyl]-3-(2-pyridinyl)-2-quinoxalinamine] |  |
|  | CN(C)CCCNc1nc2cc(Cl)c(Cl)cc2nc1-c1cccs1 [Example 15, N′-(6,7-Dichloro-3-thiophen-2-yl-quinoxalin-2-yl)-N,N-dimethyl-propane-1,3-diamine] | IC50 ([1]; Neutrophil, 0.5 h): 0.32 µM |
| 165 to 166 °C | CC(=O)N(C)c1ccc(Nc2nc3ccccc3nc2-c2ccccn2)cc1 [Example 9, N-Methyl-N-[4-[[3-(2-pyridinyl)-2-quinoxalinyl]amino]phenyl]-acetamide] |  |
| 145 to 147 °C | CCN(CC)CCCCNc1nc2cc(Cl)c(Cl)cc2nc1-c1cc2ccccc2[nH]1.Cl |  |
|  | CCN(CC)CCCCNc1nc2cc(Cl)c(Cl)cc2nc1-c1ccc(-c2cccs2)s1 [Example 34, N′-(3-[2,2′]Bithiophenyl-5-yl-6,7-dichloro-quinoxalin-2-yl)-N,N-diethyl-butane-1,4-diamine] | IC50 ([1]; Neutrophil, 0.5 h): 0.08 µM |
|  | 6-Chloro-N-[4-(dimethylamino)cyclohexyl]-3-(2-pyridinyl)-2-quinoxalinamine and 7-Chloro-N-[4-(dimethylamino)cyclohexyl]-3-(2-pyridinyl)-2-quinoxalinamine, Dihydrochloride, Hydrate [Example 1] | IC50 [1]: 0.89 µM; IL-8 Ca+2 Flux % Inhibition (μM) [2]: 34% @ 11 |
| 180 to 182 °C | CN(C)C1CCC(Nc2nc3cc(Cl)c(Cl)cc3nc2-c2ccccn2)CC1.Cl (stereo not drawn) |  |
| 63 to 65 °C | c1ccc(-c2nc3ccccc3nc2NC2CN3CCC2CC3)nc1 (stereo not drawn) |  |
| 165 to 167 °C | CCCc1ccc(-c2nc3cc(Cl)c(Cl)cc3nc2NCCCCN(CC)CC)s1.Cl |  |
| 169 to 170 °C | CN(C)c1ccc(Nc2nc3ccccc3nc2-c2ccccn2)cc1 [Example 8, N-[4-(Dimethylamino)phenyl]-3-(2-pyridinyl)-2-quinoxalinamine] |  |
| 134 to 136 °C | CCN(CC)CCCCNc1nc2cc(Cl)c(Cl)cc2nc1-c1cccc2c1sc1ccccc12.Cl |  |
| 280 to 282 °C (dec.) | Cl.N[C@H]1CC[C@H](Nc2nc3cc(Cl)c(Cl)cc3nc2-c2ccccn2)CC1 |  |
|  | CCN(CC)CCCCNc1nc2cc(Cl)c(Cl)cc2nc1-c1ccc(C)s1 [Example 28, N′-[6,7-Dichloro-3-(5-methyl-thiophen-2-yl)quinoxalin-2-yl]-N,N-diethyl-butane-1,4-diamine] | IC50 ([1]; Neutrophil, 0.5 h): 0.4 µM |
|  | CCN(CC)CCCCNc1nc2cc(Cl)c(Cl)cc2nc1-c1cc2ccccc2s1 [Example 25, N′(3-Benzo[b]thiophen-2-yl-6,7-dichloro-quinoxalin-2-yl)-N,N-4-diethyl-butane-1,4-diamine] | IC50 ([1]; Neutrophil, 0.5 h): 0.31 µM |
| 98 to 100 °C | CCN(CC)CCCCNc1nc2cc(Cl)c(Cl)cc2nc1-c1ccc(Cl)s1.Cl |  |
